Data from US20220346382A1, “COMPOSITION FOR TREATING AND PREVENTING BACTERIAL GROWTH ON A SUBSTRATE” (PETROLIAM NASIONAL BERHAD (PETRONAS), priority 2019, published 2022).

Columns and labels:
[1] = tested on: bacteria of produced water sample B04S; assay: Cell dry weight of cultured formulations (NACE TM0194-2014); type: cell-based; conditions: Day 7, ambient temperature, static
Source text: Bacteria were isolated from produced water samples from an oil field (denoted as samples B04S and B24) in accordance with NACE TM0194-2014.
In sample B04S, Bacillus sp., Bacillus thuringiensis and Marine actinomycetes were identified. In sample B24, Bacillus thuringiensis and Marine actinomycetes were identified. Marine actinomycete was identified to be the main species that support biofilm stability and a growth environment for other species including sulphate-reducing bacteria (SRB).
(§1) Formulations were prepared by mixing the listed chemical components in the stated concentrations with produced water sample BO4S in a flask (Table 1). These formulations were tested in subsequent examples for biocide activity.
The formulations in Example 1 were cultured for seven days at ambient temperatures and static conditions in glass vials. Subsequently the cell dry weight of the formulations was quantified in accordance with NACE TM0194-2014. The cell dry weight for each formulation was reported in and/or converted to g/mL for comparison (FIG. 1).

[2] = tested on: bacteria of produced water sample B04S; assay: Viable cell count from suspension cells by hemocytometer (ASTM E 2315-03); type: cell-based
Procedure: as §1
In a typical procedure, a glass hemocytometer and coverslip was cleaned with alcohol prior to use. The coverslip was moisturised with water and affixed to the hemocytometer. The presence of Newton's refraction rings under the coverslip indicated proper adhesion.
The flasks containing the formulations were gently swirled to ensure that the cells were evenly distributed. Before the cells settled to the bottom of the flasks, 0.5 mL of a cell suspension was transferred out to an Eppendorf tube using a 5 mL sterile pipette. Trypan blue (three to five drops) was added to the tube. 100 μL of the Trypan blue-treated cell suspension was pipetted and transferred to the hemocytometer. If a glass hemocytometer was used, both chambers were gently filled underneath the coverslip, allowing the cell suspension to be drawn out by capillary action. If a disposable hemocytometer was used, the cell suspension was pipetted into the well of the counting chamber, allowing capillary action to draw it inside. A microscope was used to focus on the grid lines of the hemocytometer with a 10× objective.

Compound | lower cell dry weight as compared to formulation THPS [1] | lower cell count as compared to THPS only ([2]; Day 5, sample B04S) | lower cell count as compared to THPS only ([2]; Day 7, sample B04S) | suppression of bacteria growth ([2]; 100 ppm, Day 7)
N[C@H](Cc1c[nH]c2ccccc12)C(=O)O [TT, D-Tryptophan] | 40% | 77% | 78% | 
tetrakis hydroxymethyl phosphonium sulfate [THPS, reference compound] |  |  |  | could not suppress bacteria growth
